# Entries after “also recorded” stand apart in the source; their conditions may differ. Where two headings read alike, the source gives them in different places.
# Experiments:
# [1] = system: Tubulin free of microtubule-associated proteins; assay: Tubulin Assembly (microtubule assembly; protein concentration of the supernatant); type: biochemical, bovine; conditions: for Tubulin Assembly ED50: concentration which reduces the supernatant protein concentration by 50%, tubulin 1 mg/ml, 37° C., 15 minutes, PEM buffer pH 6.9; for Tubulin Assembly ED50 /ED50 Taxol: relative to control sample of taxol, less than 1 = greater activity than taxol
# Description: This example illustrates the results of biological tests on the compounds of this invention and certain "controls" with respect to tubulin binding and the effect of these compounds on B16 melanoma. The following procedures were employed:
# Tubulin Preparation and Assembly. The tubulin testing was done exactly as described by Himes (Georg, G. I., et al., "Synthesis of Biologically Active Taxol Analogs with Modified Phenylisoserine Side Chains", J. Med. Chem. Vol. 35: 4230, (1992)), incorporated herein by reference. Tubulin free of microtubule-associated proteins was purified from bovine brain as described in Algaier, J.; Himes, R. H., "The Effect of Dimethyl Sulfoxide on the Kinetics of Tubulin Assembly" Biochim. Biophys. Acta, Vol 954, pp 235-243, 1988. The assembly reaction was done at 37° C. in PEM buffer ([…], pH 6.9, 1 mM EGTA, and 1 mM MgSO4) at a protein concentration of 1 mg/ml (10 μM) in the presence of taxol or taxol analogs and 0.5 mM GTP. The reaction was monitored by the increase in the apparent absorbance at 350 nm.
# Taxol has been included in Table 1 for reference. […] A number less than 1 in these columns indicates greater activity than taxol. A number greater than 1 in these columns indicates lower activity than taxol. These tests have been used and relied upon by researchers in this field to determine the potential efficacy of taxol and/or a taxol analog for the treatment of cancer.
# ^b Tubulin at 1 mg/ml was incubated with various concentrations of th
# compounds at 37° C. for 15 minutes in 0.5 ml of PEM buffer (0.1M
# Pipes, 1 mM EGTA, 1 mM MgSO4, pH 6.9). Samples were centrifuged and
# the protein concentration on the supernatant was determined.
# ^d The concentration in μg/ml which reduces the supernatant protei
# [2] = system: B16 melanoma cells; assay: B16 Melanoma Cell Proliferation; type: cell-based; conditions: for IC50: Mus musculus, read-out: B16 Proliferation ED50; for B16 Proliferation ED50 /ED50 Taxol: relative to control sample of taxol, less than 1 = greater activity than taxol
# Description: The following procedures were employed:
# B16 Melanoma Cell Proliferation. Cells were seeded in 24-well plates at 7.5×10^4 cells/well and grown in Delbecco's modified minimal essential medium (MEM) containing 10% bovine calf serum at 37° C. for 24 hours in a 97% humidified atmosphere of 5.5% CO2, the medium was then replaced with fresh medium containing taxol or its derivatives and dissolved in DMSO in concentrations ranging from […] to 1×10^-7 M for taxol and other derivatives. The final concentration of DMSO in the cell medium was 0.5% or less. […] After 40 hours, the cells were released by trypsinization and counted in a Coulter counter.
# A number less than 1 in these columns indicates greater activity than taxol. A number greater than 1 in these columns indicates lower activity than taxol.
# [3] = system: tubulin; conditions: Taxotere compared with taxol; taxol per Schiff et al.; Kingston review; cited from earlier work
# [4] = system: macrophage-like J774.2 cells; conditions: mouse macrophage-like J774.2 cells; Taxotere vs taxol; cited from earlier work
# [5] = system: P388 murine leukemia cells; conditions: Taxotere vs taxol; cited from earlier work
# [6] = system: taxol-resistant tumor cells; conditions: Taxotere vs taxol; cited from earlier work
# [7] = cited from earlier work
# [8] = system: cell; conditions: literature on taxol and taxol analogs (Kingston); cited from earlier work
# [9] = B16, concentration which reduces the number of cells by 50 [%] compared to a control, about 40 h at 37° C., highest concentration used 1000 ng/ml
smiles,measurement,setting,value
CC(=O)O[C@@]12CO[C@@H]1C[C@H](O[C@@H]1OCC(O)OC1O)[C@@]1(C)C(=O)[C@H](O)C3=C(C)[C@@H](OC(=O)[C@H](O)[C@@H](NC(=O)c4ccccc4)c4ccccc4)C[C@@](O)([C@@H](OC(=O)c4ccccc4)[C@H]21)C3(C)C (stereo partly shown) [Compound 6],Tubulin Assembly ED50,[1],0.68 µg/mL
same,Tubulin Assembly ED50 /ED50 Taxol,[1],0.80
same,IC50,"[2]; B16, 40 h",0.432 µg/mL
same,B16 Proliferation ED50 /ED50 Taxol,[2],15.1
"CC(=O)O[C@@]12CO[C@@H]1C[C@H](O[C@@H]1OC[C@@H](O)[C@H](O)[C@H]1O)[C@@]1(C)C(=O)[C@H](O)C3=C(C)[C@@H](OC(=O)[C@H](O)[C@@H](NC(=O)c4ccccc4)c4ccccc4)C[C@@](O)([C@@H](OC(=O)c4ccccc4)[C@H]21)C3(C)C [Compound 5, 10-deacetyl-7-xylosyl taxol]",Tubulin Assembly ED50,[1],0.72 µg/mL
same,Tubulin Assembly ED50 /ED50 Taxol,[1],0.70
same,IC50,"[2]; B16, 40 h",> 1 µg/mL
same,B16 Proliferation ED50 /ED50 Taxol,[2],> 44
CC(=O)O[C@H]1C(=O)[C@]2(C)[C@@H](O[C@@H]3OCC(O)OC3O)C[C@H]3OC[C@@]3(OC(C)=O)[C@H]2[C@H](OC(=O)c2ccccc2)[C@]2(O)C[C@H](OC(=O)[C@H](O)[C@@H](NC(=O)c3ccccc3)c3ccccc3)C(C)=C1C2(C)C (stereo partly shown) [Compound 4],"tubulin binding / in vitro tubulin assembly, in words",[1]; compared to taxol or to precursors,comparable to results for taxol
same,Tubulin Assembly ED50,[1],0.48 µg/mL
same,Tubulin Assembly ED50 /ED50 Taxol,[1],0.57
same,"cytotoxicity, in words","[2]; B16 melanoma, compared to taxol or to precursors",comparable to results for taxol
same,IC50,[2]; [9],0.05 µg/mL
same,B16 Proliferation ED50 /ED50 Taxol,[2],2.2
CC(=O)O[C@@]12CO[C@@H]1C[C@H](O)[C@@]1(C)C(=O)[C@H](O)C3=C(C)[C@@H](OC(=O)[C@H](O)[C@@H](NC(=O)OC(C)(C)C)c4ccccc4)C[C@@](O)([C@@H](OC(=O)c4ccccc4)[C@H]21)C3(C)C [Compound 2],"activity as a promoter of tubulin polymerization / tubulin binding, in words",[3],slightly more active as a promoter of tubulin polymerization; also recorded: enhanced in vitro tubulin binding activity
same,"potency as an inhibitor of replication, times more potent than taxol",[4],1.5 times
same,"potency as an inhibitor of replication, times more potent than taxol",[5],1.5 times
same,"potency in taxol-resistant tumor cells, vs taxol",[6],at least five-fold more potent
same,"water solubility, in words",[7],improved water solubility
"CC(=O)O[C@H]1C(=O)[C@@]2(C)[C@H]([C@H](OC(=O)c3ccccc3)[C@]3(O)C[C@H](OC(=O)[C@H](O)[C@@H](NC(=O)c4ccccc4)c4ccccc4)C(C)=C1C3(C)C)[C@]1(OC(C)=O)CO[C@@H]1C[C@@H]2O [Compound 1, taxol]",Tubulin Assembly ED50,[1],1.08 µg/mL
same,ED50 for taxol in the assembly assay,"[1]; control sample, denominator of ED50/ED50 Taxol, 15 min",0.854 µg/mL
same,Tubulin Assembly ED50 /ED50 Taxol,[1],1.26
same,B16 Proliferation ED50 /ED50 Taxol,[2],0.95
same,"activity as a promoter of tubulin polymerization / tubulin binding, in words",[3],significant tubulin binding activity
same,"cytotoxicity / activity, in words",[8],significant cytotoxicity
"CCCCCC(=O)N[C@@H](c1ccccc1)[C@@H](O)C(=O)O[C@H]1C[C@@]2(O)[C@@H](OC(=O)c3ccccc3)[C@@H]3[C@]4(OC(C)=O)CO[C@@H]4C[C@H](O[C@@H]4OC[C@@H](O)[C@H](O)[C@H]4O)[C@@]3(C)C(=O)[C@H](O)C(=C1C)C2(C)C [Compound 13, 10-deacetyl-7-xylosyl taxol C]",Tubulin Assembly ED50,[1],0.58 µg/mL
same,Tubulin Assembly ED50 /ED50 Taxol,[1],0.60
same,IC50,"[2]; B16, 40 h",> 1 µg/mL
same,B16 Proliferation ED50 /ED50 Taxol,[2],> 44
C/C=C(\C)C(=O)N[C@@H](c1ccccc1)[C@@H](O)C(=O)O[C@H]1C[C@@]2(O)[C@@H](OC(=O)c3ccccc3)[C@@H]3[C@]4(OC(C)=O)CO[C@@H]4C[C@H](O[C@@H]4OCC(O)OC4O)[C@@]3(C)C(=O)[C@H](O)C(=C1C)C2(C)C (stereo partly shown) [Compound 10],Tubulin Assembly ED50,[1],0.82 µg/mL
same,Tubulin Assembly ED50 /ED50 Taxol,[1],0.96
same,IC50,"[2]; B16, 40 h",0.317 µg/mL
same,B16 Proliferation ED50 /ED50 Taxol,[2],14.1
"CC(=O)O[C@H]1C(=O)[C@]2(C)[C@@H](O[C@@H]3OC[C@@H](O)[C@H](O)[C@H]3O)C[C@H]3OC[C@@]3(OC(C)=O)[C@H]2[C@H](OC(=O)c2ccccc2)[C@]2(O)C[C@H](OC(=O)[C@H](O)[C@@H](NC(=O)c3ccccc3)c3ccccc3)C(C)=C1C2(C)C [Compound 3, 7-xylosyl taxol]",Tubulin Assembly ED50,[1],0.82 µg/mL
same,Tubulin Assembly ED50 /ED50 Taxol,[1],0.80
same,IC50,"[2]; B16, 40 h",0.925 µg/mL
same,B16 Proliferation ED50 /ED50 Taxol,[2],40.8
CC(=O)O[C@@]12CO[C@@H]1C[C@H](O[C@@H](CO)OCCO)[C@@]1(C)C(=O)[C@H](O)C3=C(C)[C@@H](OC(=O)[C@H](O)[C@@H](NC(=O)c4ccccc4)c4ccccc4)C[C@@](O)([C@@H](OC(=O)c4ccccc4)[C@H]21)C3(C)C [Compound 15],Tubulin Assembly ED50,[1],1.42 µg/mL
same,Tubulin Assembly ED50 /ED50 Taxol,[1],1.66
same,IC50,[2]; [9],0.328 µg/mL
same,B16 Proliferation ED50 /ED50 Taxol,[2],14.6
CCCCCC(=O)N[C@@H](c1ccccc1)[C@@H](O)C(=O)O[C@H]1C[C@@]2(O)[C@@H](OC(=O)c3ccccc3)[C@@H]3[C@]4(OC(C)=O)CO[C@@H]4C[C@H](O[C@@H]4OCC(O)OC4O)[C@@]3(C)C(=O)[C@H](O)C(=C1C)C2(C)C (stereo partly shown) [Compound 14],Tubulin Assembly ED50,[1],1.45 µg/mL
same,Tubulin Assembly ED50 /ED50 Taxol,[1],1.70
same,IC50,[2]; [9],0.186 µg/mL
same,B16 Proliferation ED50 /ED50 Taxol,[2],8.28
"C/C=C(\C)C(=O)N[C@@H](c1ccccc1)[C@@H](O)C(=O)O[C@H]1C[C@@]2(O)[C@@H](OC(=O)c3ccccc3)[C@@H]3[C@]4(OC(C)=O)CO[C@@H]4C[C@H](O[C@@H]4OC[C@@H](O)[C@H](O)[C@H]4O)[C@@]3(C)C(=O)[C@H](O)C(=C1C)C2(C)C [Compound 9, 10-deacetyl-7-xylosyl cephalomannine]",Tubulin Assembly ED50,[1],1.10 µg/mL
same,Tubulin Assembly ED50 /ED50 Taxol,[1],1.10
same,IC50,"[2]; B16, 40 h",0.755 µg/mL
same,B16 Proliferation ED50 /ED50 Taxol,[2],33.3

# Source: patent US5356928A, “Cytotoxic agents” (Hauser Chemical Research, Inc., priority 1993, dated 1994)
